In experiment [1] the target is T1, Galectin-3 (Homo sapiens, UniProt P17931). As to the kind of experiment: Binding affinity to human galactin-3 assessed as dissociation constant by competitive fluorescence polarization assay. (In fluorescence polarisation assays a small probe gives low polarisation when free and higher when bound to something large.)
In experiment [2] the target is T2, Galectin-8 (Homo sapiens, UniProt O00214).
T2 sequence (O00214 whole entry): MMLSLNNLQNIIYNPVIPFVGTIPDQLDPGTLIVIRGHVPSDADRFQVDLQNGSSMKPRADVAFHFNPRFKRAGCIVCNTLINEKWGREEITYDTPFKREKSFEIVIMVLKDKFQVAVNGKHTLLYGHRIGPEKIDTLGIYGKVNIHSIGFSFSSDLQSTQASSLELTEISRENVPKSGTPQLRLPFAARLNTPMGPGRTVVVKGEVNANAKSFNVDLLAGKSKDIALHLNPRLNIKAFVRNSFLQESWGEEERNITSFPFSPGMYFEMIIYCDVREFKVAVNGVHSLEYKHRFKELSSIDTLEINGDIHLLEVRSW
As to the kind of experiment: Binding affinity to human galactin-8 N terminal domain assessed as dissociation constant by competitive fluorescence polarization assay.

The target in experiment [3] is T1, Galectin-3. As to the kind of experiment: Binding affinity to galectin-3 (unknown origin).
Experiment [4] addresses T2, Galectin-8. Nature of the experiment: Binding affinity to galectin-8 N-terminal domain (unknown origin).
Experiment [5] is filed under the species Homo sapiens. As to the kind of experiment: Selectivity ratio of Kd for binding affinity to human galactin-8 N terminal domain to Kd for binding affinity to human galactin-3.
Experiment [6] has as its target T3, Galectin-4 (Homo sapiens, UniProt P56470).
T3 sequence (P56470 whole entry): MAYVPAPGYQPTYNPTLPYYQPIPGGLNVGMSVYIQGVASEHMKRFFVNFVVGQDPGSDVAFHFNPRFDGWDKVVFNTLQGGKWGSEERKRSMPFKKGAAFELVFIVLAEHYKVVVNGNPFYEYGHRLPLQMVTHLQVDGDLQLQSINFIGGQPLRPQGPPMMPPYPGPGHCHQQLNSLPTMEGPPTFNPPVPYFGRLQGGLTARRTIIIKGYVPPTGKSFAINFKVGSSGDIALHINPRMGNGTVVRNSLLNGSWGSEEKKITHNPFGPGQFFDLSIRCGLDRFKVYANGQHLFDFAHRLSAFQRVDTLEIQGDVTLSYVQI
Nature of the experiment: Binding affinity to human galactin-4 C terminal domain assessed as dissociation constant by competitive fluorescence polarization assay.

The next experiment has as its target Galectin-7 (Homo sapiens, UniProt P47929). As to the kind of experiment: Binding affinity to human galactin-7 assessed as dissociation constant by competitive fluorescence polarization assay.
Experiment [7] deals with T3, Galectin-4. Nature of the experiment: Binding affinity to human galactin-4 N terminal domain assessed as dissociation constant by competitive fluorescence polarization assay.
For experiment [8], the species on record is Homo sapiens. Nature of the experiment: Selectivity ratio of Kd for binding affinity to human galactin-9 C terminal domain to binding affinity to human galactin-8 N terminal domain.
A further experiment has as its target Galectin-1 (Homo sapiens, UniProt P09382). As to the kind of experiment: Binding affinity to human galactin-1 assessed as dissociation constant by competitive fluorescence polarization assay.
Experiment [9] concerns the target T2, Galectin-8. Nature of the experiment: Binding affinity to human galactin-8 C terminal domain assessed as dissociation constant by competitive fluorescence polarization assay.
In experiment [10] the target is T4, Galectin-9 (Homo sapiens, UniProt O00182). As to the kind of experiment: Binding affinity to human galactin-9 N terminal domain assessed as dissociation constant by competitive fluorescence polarization assay.
T4 sequence (O00182 whole entry, the tested form may be a part): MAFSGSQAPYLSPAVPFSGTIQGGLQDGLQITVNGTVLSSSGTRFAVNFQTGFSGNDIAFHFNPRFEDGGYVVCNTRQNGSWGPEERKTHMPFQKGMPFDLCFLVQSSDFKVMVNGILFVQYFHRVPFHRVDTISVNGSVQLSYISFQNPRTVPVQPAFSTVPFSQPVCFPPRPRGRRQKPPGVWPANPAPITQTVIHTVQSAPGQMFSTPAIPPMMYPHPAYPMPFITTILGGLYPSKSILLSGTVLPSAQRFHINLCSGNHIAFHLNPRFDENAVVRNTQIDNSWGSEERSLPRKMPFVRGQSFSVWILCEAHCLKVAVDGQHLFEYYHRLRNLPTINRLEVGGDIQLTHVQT
The target in experiment [11] is T4, Galectin-9. As to the kind of experiment: Binding affinity to human galactin-9 C terminal domain assessed as dissociation constant by competitive fluorescence polarization assay.
For experiment [12], the species on record is Homo sapiens. Nature of the experiment: Selectivity ratio of Kd for binding affinity to human galactin-9 N terminal domain to binding affinity to human galactin-8 N terminal domain.
Another experiment deals with T5, Galectin-2 (Homo sapiens, UniProt P05162).
T5 sequence (P05162 whole entry): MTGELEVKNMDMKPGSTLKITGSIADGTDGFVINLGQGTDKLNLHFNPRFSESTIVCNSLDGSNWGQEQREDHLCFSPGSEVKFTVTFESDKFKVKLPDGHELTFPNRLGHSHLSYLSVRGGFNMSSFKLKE
As to the kind of experiment: Binding affinity to human galactin-2 assessed as dissociation constant by competitive fluorescence polarization assay.

Experiment [13] deals with T1, Galectin-3. As to the kind of experiment: Binding affinity to human galactin-3 assessed as dissociation constant at 1500 uM by competitive fluorescence polarization assay.
Experiment [14] has as its target T6, Galectin-8 (Homo sapiens) (UniProt O00214).
T6 sequence (whole entry): T2 sequence (O00214 whole entry)
As to the kind of experiment: Binding affinity to human galactin-8 N terminal domain assessed as dissociation constant at 1500 uM by competitive fluorescence polarization assay.

Activity calls are given as the source filed them. The calls are words filed in the database; no cut-off is given here.

By Kd is commonly meant a measure of binding affinity in units of concentration.

T1 sequence (P17931 whole entry): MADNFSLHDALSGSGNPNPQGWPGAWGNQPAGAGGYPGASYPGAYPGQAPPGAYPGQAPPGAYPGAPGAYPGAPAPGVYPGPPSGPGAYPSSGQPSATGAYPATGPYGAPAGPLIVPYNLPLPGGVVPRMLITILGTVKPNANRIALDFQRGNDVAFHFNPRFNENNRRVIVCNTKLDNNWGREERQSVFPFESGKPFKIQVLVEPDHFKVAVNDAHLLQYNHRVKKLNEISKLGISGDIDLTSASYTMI
Chain of Galectin-1 (P09382 whole entry, the tested form may be a part): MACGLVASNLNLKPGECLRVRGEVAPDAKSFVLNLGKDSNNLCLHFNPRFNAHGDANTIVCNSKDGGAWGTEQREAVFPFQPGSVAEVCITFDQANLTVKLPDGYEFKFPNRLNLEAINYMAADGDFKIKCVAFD
Chain of Galectin-7 (P47929 whole entry, the tested form may be a part): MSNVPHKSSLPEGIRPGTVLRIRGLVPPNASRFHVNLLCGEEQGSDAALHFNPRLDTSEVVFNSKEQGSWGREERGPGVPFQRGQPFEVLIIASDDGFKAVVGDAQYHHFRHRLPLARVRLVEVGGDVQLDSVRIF

As to `CO[C@@H]1O[C@H](CO)[C@H](O)[C@H](OCc2cn(-c3cccc(C(=O)O)c3)nn2)[C@H]1O`, the Kd on Galectin-3 [1] turned out to be 500 µM; at Galectin-8 [2], 640 µM.

As for `CO[C@@H]1O[C@H](CO)[C@H](O)[C@H](OCc2nc3cc(C(=O)O)ccc3n2C)[C@H]1O`, the Kd on Galectin-3 [1] is 1100 µM; on Galectin-8 [2] it was over 2000 µM.

On to `CO[C@@H]1O[C@H](CO)[C@H](O)[C@H](OCc2nc3ccccc3n2C)[C@H]1O`, for which the figures for the Kd on Galectin-3 [1] and on Galectin-8 [2] were 1600 µM and 1200 µM, respectively.

With `CO[C@@H]1O[C@H](CO)[C@H](O)[C@H](OCc2ccc3ccc(C(=O)O)cc3n2)[C@H]1O`, the Kd on Galectin-3 [3] was 380 µM; at Galectin-8 [4], 110 µM.

In the case of `CCOC(=O)c1ccc2c(c1)nc(CO[C@H]1[C@@H](O)[C@@H](CO)O[C@@H](OC)[C@@H]1O)n2C`, the dissociation constant (Kd) at Galectin-3 [1] turned out to be 2000 µM; on Galectin-8 [2], 1600 µM.

Take `CO[C@@H]1O[C@H](CO)[C@H](O)[C@H](OCc2nc3ccc(C(=O)O)cc3n2C)[C@H]1O`: the Kd on Galectin-3 [1] was 1400 µM; on Galectin-8 [2], 190 µM. Besides, in the experiment listed under Homo sapiens [5], the Selectivity ratio stood at 7.

For `COC(=O)c1cccc(-n2cc(CO[C@H]3[C@@H](O)[C@@H](CO)O[C@@H](Sc4ccc(C)cc4)[C@@H]3O)nn2)c1`, the results for the Kd on Galectin-3 [1] and at Galectin-8 [2] were 490 µM and 1200 µM, respectively.

Take `CO[C@@H]1O[C@H](CO)[C@H](O)[C@H](OCc2cn(-c3ccc(C(=O)O)cc3)nn2)[C@H]1O`: the values for the Kd at Galectin-3 [1] and at Galectin-8 [2] were 190 µM and 1300 µM, respectively.

Turning to `CO[C@@H]1O[C@H](CO)[C@H](O)[C@H](OCc2nc3ccccc3s2)[C@H]1O`, the Kd at Galectin-3 [1] is 510 µM; at Galectin-8 [2], 870 µM.

For the compound `CO[C@@H]1O[C@H](CO)[C@H](O)[C@H](OCc2nc3ccccc3o2)[C@H]1O`, the Kd on Galectin-3 [1] was 620 µM; at Galectin-8 [2] it was 1600 µM.

Turning to `O=C(O)c1ccc2nc(CO[C@@H]3[C@@H](O)[C@@H](Sc4ccc(Cl)c(Cl)c4)O[C@H](CO)[C@@H]3O)[nH]c2c1`, the Kd on Galectin-4 [6] came out at 160 µM; at Galectin-7 it was 43 µM; at Galectin-4 [7] it was 78 µM; at Galectin-3 [1], 4.1 µM; at Galectin-1, 87 µM; at Galectin-8 [9] it was 450 µM. The Kd on Galectin-9 [10] turned out to be 13 µM; on Galectin-9 [11] it was 18 µM; at Galectin-8 [2] it was 2.8 µM; at Galectin-2 it was 100 µM. Also, the Selectivity ratio in the experiment listed under Homo sapiens [8] was 9; in the experiment filed under Homo sapiens [12] it was 5.

With `Cn1c(CO[C@@H]2[C@@H](O)[C@@H](Sc3ccc(Cl)c(Cl)c3)O[C@H](CO)[C@@H]2O)nc2ccc(C(=O)O)cc21`, the Kd amounted to 120 µM at Galectin-4 [6]; 190 µM on Galectin-7; 130 µM on Galectin-4 [7]; 5 µM on Galectin-3 [1]; 130 µM on Galectin-1; 760 µM at Galectin-8 [9]. The Kd was determined as 16 µM on Galectin-9 [10], 45 µM at Galectin-9 [11], 1.8 µM on Galectin-8 [2] and 220 µM on Galectin-2. The Selectivity ratio in the experiment listed under Homo sapiens [5] and in the experiment filed under Homo sapiens [12] was 25 in each case.

With `COC(=O)c1ccc2nc(CO[C@H]3[C@@H](O)[C@@H](CO)O[C@@H](OC)[C@@H]3O)n(C)c2c1`, the result at Galectin-3 [13] was inactive. Further, the Kd at Galectin-8 [2] came to 1100 µM.

For the compound `O=C(O)c1ccc2ccc(CO[C@@H]3[C@@H](O)[C@@H](Sc4ccc(Cl)c(Cl)c4)O[C@H](CO)[C@@H]3O)nc2c1`, the Kd came to 1.2 µM on Galectin-3 [3] and 1.5 µM on Galectin-8 [4].

For `Cc1ccc(S[C@@H]2O[C@H](CO)[C@H](O)[C@H](OCc3cn(-c4ccc(C(=O)O)cc4)nn3)[C@H]2O)cc1`, the Kd on Galectin-3 [1] is 230 µM; on Galectin-8 [2], 1500 µM.

In the case of `Cc1ccc(S[C@@H]2O[C@H](CO)[C@H](O)[C@H](OCc3cn(-c4ccccc4C(=O)O)nn3)[C@H]2O)cc1`, the Kd is 690 µM at Galectin-3 [1] and 1200 µM on Galectin-8 [2].

In the case of `COC(=O)c1ccccc1-n1cc(CO[C@H]2[C@@H](O)[C@@H](CO)O[C@@H](Sc3ccc(C)cc3)[C@@H]2O)nn1`, the figures for the Kd at Galectin-3 [1] and at Galectin-8 [2] were over 2000 µM and 1100 µM, respectively.

Consider `CO[C@@H]1O[C@H](CO)[C@H](O)[C@H](OCc2nc3ccccc3[nH]2)[C@H]1O`, for which the Kd on Galectin-3 [1] was 1500 µM; at Galectin-8 [2], 860 µM.

For the compound `COC(=O)c1ccc(-n2cc(CO[C@H]3[C@@H](O)[C@@H](CO)O[C@@H](Sc4ccc(C)cc4)[C@@H]3O)nn2)cc1`, the Kd on Galectin-3 [1] is over 2000 µM; at Galectin-8 [2] it was 940 µM.

As to `Cc1ccc(S[C@@H]2O[C@H](CO)[C@H](O)[C@H](OCc3cn(-c4cccc(C(=O)O)c4)nn3)[C@H]2O)cc1`, the Kd at Galectin-3 [1] turned out to be 250 µM; on Galectin-8 [2] it was 760 µM.

Consider `COC(=O)c1ccc2nc(CO[C@H]3[C@@H](O)[C@@H](CO)O[C@@H](OC)[C@@H]3O)[nH]c2c1`, for which the equilibrium dissociation constant (Kd) on Galectin-3 [1] came to 1600 µM; on Galectin-8 [2] it was 1200 µM.

For `CO[C@@H]1O[C@H](CO)[C@H](O)[C@H](OCc2ccc3ccccc3n2)[C@H]1O`, the figures for the Kd on Galectin-3 [3] and at Galectin-8 [4] were 620 µM and 700 µM, respectively.

`CO[C@@H]1O[C@H](CO)[C@H](O)[C@H](OCc2cn(-c3ccccc3C(=O)O)nn2)[C@H]1O`: in experiment [14], the result was inactive. Moreover, the Kd at Galectin-3 [1] came to 470 µM.

Take `COC(=O)c1cccc(-n2cc(CO[C@H]3[C@@H](O)[C@@H](CO)O[C@@H](OC)[C@@H]3O)nn2)c1`: the results for the Kd on Galectin-3 [1] and at Galectin-8 [2] were 510 µM and 810 µM, respectively.

Turning to `COC(=O)c1ccc(-n2cc(CO[C@H]3[C@@H](O)[C@@H](CO)O[C@@H](OC)[C@@H]3O)nn2)cc1`, the Kd at Galectin-3 [1] was 700 µM; on Galectin-8 [2] it was over 2000 µM.

`CO[C@@H]1O[C@H](CO)[C@H](O)[C@H](OCc2nc3ccc(C(=O)O)cc3[nH]2)[C@H]1O`: the Kd at Galectin-3 [1] is 590 µM; on Galectin-8 [2] it was 310 µM.

Take `COC(=O)c1ccccc1-n1cc(CO[C@H]2[C@@H](O)[C@@H](CO)O[C@@H](OC)[C@@H]2O)nn1`: the Kd at Galectin-3 [1] was found to be 330 µM; at Galectin-8 [2], 1400 µM.

The values above are taken from ChEMBL document CHEMBL4831499, “Benzimidazole-galactosides bind selectively to the Galectin-8 N-Terminal domain: Structure-based design and optimisation” (Eur J Med Chem, 2021).
